Reference: patent US8349835B2, “Aromatic ring fused triazine derivatives and uses thereof” (Shenyang Pharmaceutical University, priority 2008, dated 2013)

Tests used:
[1] = tested on: Microvascular Endothelial Cells (MVEC); assay: MTT growth inhibition of MVEC; type: cell-based; conditions: Endothelial cell, 96 h, 4 days culture with drug, read-out: IG50 on inhibiting growth of MVEC
Procedure: (§1) In Vitro Anti-Tumor Activity Test
(§2) Put cell suspension into centrifugal tubes with a pipette under sterile conditions, then the cell suspension was centrifuged for 3 minutes at 1300 rpm. Discarded the supernatant lightly and added fresh culture medium. Mixed the cells by pipetting, then transferred the cells into culture flasks, and put them into the CO2 incubator. Changed the culture medium once after 24 hours.
(§3) Human prostate cancer cells (DU145, PC-3) were cultured in a medium containing RPMI1640 basic medium supplemented with 10% heat-inactivated FBS, 100 IU/mL penicillin, 100 μg/mL streptomycin and 1 mmol/L L-glutamine. Human breast carcinoma cells (T47D, MDA-MB231) were cultured in a medium containing RPM11640 basic medium supplemented with 10% heat-inactivated FBS, 5 μg/mL insulin, 100 IU/mL penicillin, 100 μg/mL streptomycin and 1 mmol/L L-glutamine. Human breast carcinoma cells (MCF-7) were cultured in a medium containing DMEM basic medium supplemented with 10% heat-inactivated FBS, 5 μg/mL insulin, 100 IU/mL penicillin, 100 μg/mL streptomycin and […]. Murine Lewis lung cancer cells (LL/2), murine melanoma cells (B16FD) and Microvascular Endothelial Cells (MVEC) were cultured in a medium containing DMEM basic medium supplemented with 10% heat-inactivated FBS, 4.5 g/L glucose, 1.5 g/L NaHCO3, 100 IU/mL penicillin, 100 μg/mL streptomycin and 4 mmol/L L-glutamine. All these cell lines were incubated at 37° C. biochemical incubator with 5% CO2 saturated humidity.
(§4) After resuscitation, the cells were passed for 2-3 generations till they became stable, then they were used for the experiments. Each passage was based on the standard that all cells were spread over the bottoms of culture flasks.
(§5) Cells were digested off from the bottoms of culture flasks with trypsin (0.25%). The cell dissociation buffer was transferred into centrifuge tubes, added medium to stop the digestion, and centrifuged for 3 minutes at 1300 rpm. Discarded the supernatant lightly and added fresh culture medium (5 mL). Mixed the cells by pipetting, then added 10 μL of the cell suspension into the cell counting plate, and adjusted the cell concentration to 2×10^4 cells/mL. Added 100 μL of the cell suspension to all wells on the 96 well plates, except A1 well as the blank control. Put the plates into the biochemical incubator for 24 hours and to make sure the cells grew along the walls.
(§6) The drugs were dissolved in 80 mmol/L DMSO first, and then diluted the drugs with ethanol to 8 mmol/L. The solution was further diluted with the culture medium to different concentrations as 160 μmol/L, 120 μmol/L, 80 μmol/L, 40 μmol/L, 20 μmol/L and 10 μmol/L. Added 100 μL of the drug solution to each well on the 96 well plates. Therefore, the final concentrations of the drugs that were added to the cells were 80 μmol/L, 40 μmol/L, 20 μmol/L, 10 μmol/L and 5 μmol/L, and each concentration were repeated in three parallel wells. Put the culture plates into the biochemical incubator to culture continuously for 4 days.
(§7) Added 50 μL MTT liquids (2 mg/mL) into each well, put the culture plates into the biochemical incubator for 4 h, discarded MTT liquids (TCC), added 200 μL DMSO, then oscillated for 10 minutes on the magnetic oscillator to make sure that the survived cells and the reaction product of MTT were fully dissolved. Detected and recorded the absorbance (OD) values of each well at the wavelength of 570 nm using the microplate reader. The OD values of cells without tested drugs were used as control. The cell growth inhibition rates under each drug concentration were calculated by the following formula. […] Inhibition rate of growth(%)=(1−The absorbance(OD)of cells with tested drugs/The absorbance(OD)of the blank control group)×100%
(§8) The absorbance (OD) of cells with tested drugs: OD value is measured with the test drugs.
(§9) The absorbance (OD) of the blank control group: OD value is measured without the test drugs. […]

[2] = tested on: chorioallantoic membrane vessels; assay: Activity test by chick chorioallantoic membrane method; type: in vivo; conditions: 5 uL medicine on cellulose membrane, chick embryo, 2 days
Method in brief: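 A sterile 0.5×0.5 cm cellulose membrane carrying 5 uL of test agent is placed on a low-vessel region of the exposed chick chorioallantoic membrane. The embryos are then incubated 2 days. The avascular area is measured and photographed.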

Rat aortic ring = assay: Rat Aortic Ring Assay; type: cell-based; conditions: for Rat Aortic Ring Assay (10 ug/ml), result in words: observed on the sixth day; for inhibition at 10 µg/mL: Rattus norvegicus, 10 ug/ml, compared with blank control, sixth day
Method in brief: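 1 mm abdominal aortic rings from 6-week-old SD animals embedded in Matrigel, cultured in DMEM/10% FBS with compound at various concentrations (≥3 wells), medium and compound renewed day 3. Microvessel area imaged on day 6 (×100, 3 random rings); inhibition rate scored: ⋆<30-60%, ⋆⋆60-90%, ⋆⋆⋆>90%.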

VEGFR-2 = VEGFR-2 (Homo sapiens, UniProt P35968); assay: VEGFR-2 inhibition rate test (kinase assay kit, colorimetric ELISA); conditions: concentration not given
VEGFR-2, sequence (P35968 20-1356): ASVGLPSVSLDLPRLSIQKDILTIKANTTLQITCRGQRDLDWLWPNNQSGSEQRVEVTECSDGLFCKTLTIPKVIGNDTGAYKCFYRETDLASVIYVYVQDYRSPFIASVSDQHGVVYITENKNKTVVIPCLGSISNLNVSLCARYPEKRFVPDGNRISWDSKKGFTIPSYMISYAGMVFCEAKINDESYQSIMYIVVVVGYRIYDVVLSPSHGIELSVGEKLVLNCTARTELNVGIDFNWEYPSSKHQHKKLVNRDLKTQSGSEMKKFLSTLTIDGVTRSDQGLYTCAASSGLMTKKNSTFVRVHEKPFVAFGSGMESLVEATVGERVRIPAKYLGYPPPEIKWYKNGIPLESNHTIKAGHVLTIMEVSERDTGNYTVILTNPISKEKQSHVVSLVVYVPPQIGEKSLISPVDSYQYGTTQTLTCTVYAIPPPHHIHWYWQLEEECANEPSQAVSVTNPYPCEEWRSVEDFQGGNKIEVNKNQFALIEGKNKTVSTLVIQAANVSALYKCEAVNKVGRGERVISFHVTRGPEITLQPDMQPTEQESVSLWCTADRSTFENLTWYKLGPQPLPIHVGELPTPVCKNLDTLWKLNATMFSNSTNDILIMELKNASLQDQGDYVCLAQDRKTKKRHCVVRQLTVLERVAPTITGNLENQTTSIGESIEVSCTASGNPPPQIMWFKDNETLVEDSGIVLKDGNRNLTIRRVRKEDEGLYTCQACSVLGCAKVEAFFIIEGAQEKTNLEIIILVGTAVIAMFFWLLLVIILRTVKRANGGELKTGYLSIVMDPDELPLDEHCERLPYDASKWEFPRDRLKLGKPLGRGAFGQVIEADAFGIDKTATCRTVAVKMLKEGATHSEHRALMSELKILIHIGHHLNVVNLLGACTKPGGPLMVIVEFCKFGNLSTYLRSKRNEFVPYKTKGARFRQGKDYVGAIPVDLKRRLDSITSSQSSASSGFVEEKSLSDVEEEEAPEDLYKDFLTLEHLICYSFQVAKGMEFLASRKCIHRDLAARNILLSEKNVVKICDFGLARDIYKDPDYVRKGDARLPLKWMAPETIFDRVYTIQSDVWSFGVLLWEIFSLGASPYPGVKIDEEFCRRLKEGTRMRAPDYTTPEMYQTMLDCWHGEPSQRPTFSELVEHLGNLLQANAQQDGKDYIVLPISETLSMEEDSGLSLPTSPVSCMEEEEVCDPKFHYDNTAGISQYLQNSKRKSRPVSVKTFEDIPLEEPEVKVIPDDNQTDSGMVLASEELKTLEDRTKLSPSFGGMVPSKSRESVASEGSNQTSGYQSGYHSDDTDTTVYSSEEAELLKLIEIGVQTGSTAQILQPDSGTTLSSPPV

[3] = tested on: murine melanoma cells (B16F0); assay: MTT growth inhibition of B16F0; type: cell-based; conditions: Mus musculus, 96 h, 4 days, read-out: IG50 B16F0
Procedure: as §1, §2, §3, §4
as §5, with “walls. […]” for “walls.”
as §7, with “The OD values of cells without tested drugs were used as control.” left out
as §8, §9

[4] = tested on: Human Umbilical Vein Endothelial Cells (HUVEC); assay: MTT growth inhibition of HUVEC; type: cell-based; conditions: 96 h, 4 days, read-out: IG50 HUVEC
Procedure: as §1, §2, §4, §5, §6, §7, §8
The absorbance (OD) of the blank control group: OD value is measured without the test drugs.
8) The Growth Inhibition Effect of Compounds on Human Breast Carcinoma Cells (T47D, MDA-MB231, MCF-7), Human Prostate Cancer (DUI45, PC-3), Murine Lewis Lung Cancer Cells (LL/2), Murine Melanoma Cells(B16F0) and Human Umbilical Vein Endothelial Cells (HUVEC) (Table 2).

[5] = tested on: Murine Lewis lung cancer cells (LL/2); assay: MTT growth inhibition of LL/2; type: cell-based; conditions: Mus musculus, Lewis lung carcinoma, 96 h; LL/2, MTT, 4 days; read-out: IG50 LL/2
Procedure: as §1, §2, §3, §4
as §5, with “walls. […]” for “walls.”
as §7, with “The OD values of cells without tested drugs were used as control.” left out
as §8, §9

[6] = tested on: Human prostate cancer cells (DU145); assay: MTT growth inhibition of DU145; type: cell-based; conditions: DU-145, 96 h, 4 days, read-out: IG50 DU145
Procedure: as §1, §2, §3, §4
as §5, with “walls. […]” for “walls.”
as §7, with “The OD values of cells without tested drugs were used as control.” left out
as §8, §9

[7] = tested on: Human prostate cancer cells (PC-3); assay: MTT growth inhibition of PC-3; type: cell-based; conditions: 96 h, PC-3, MTT, 4 days, read-out: IG50 PC-3
Procedure: as §1, §2, §3, §4
as §5, with “walls. […]” for “walls.”
as §7, with “The OD values of cells without tested drugs were used as control.” left out
as §8, §9

[8] = tested on: Human breast carcinoma cells (T47D); assay: MTT growth inhibition of T47D; type: cell-based; conditions: 96 h, 4 days, read-out: IG50 T47D
Procedure: as §1, §2, §3, §4
as §5, with “walls. […]” for “walls.”
as §7, with “The OD values of cells without tested drugs were used as control.” left out
as §8, §9

[9] = tested on: Human breast carcinoma cells (MCF-7); assay: MTT growth inhibition of MCF-7; type: cell-based; conditions: MCF7, 96 h, MCF-7, MTT, 4 days, read-out: IG50 MCF-7
Procedure: as §1, §2, §3, §4
(§10) Cells were digested off from the bottoms of culture flasks with trypsin (0.25%). The cell dissociation buffer was transferred into centrifuge tubes, added medium to stop the digestion, and centrifuged for 3 minutes at 1300 rpm. […]
as §7, with “The OD values of cells without tested drugs were used as control.” left out
as §8, §9

[10] = tested on: Human breast carcinoma cells (MDA-MB231); assay: MTT growth inhibition of MDA-MB231; type: cell-based; conditions: MDA-MB-231, 96 h, 4 days, read-out: IG50 MDA-MB231
Procedure: as §1, §2, §3, §4, §10
as §7, with “The OD values of cells without tested drugs were used as control.” left out
as §8, §9

Structure (SMILES): CCCCOc1cc2nnnc(Nc3ccc(F)c(Cl)c3)c2cc1OC [Example 22, 6-methoxy-7-n-butoxy-4-(3-chloro-4-fluoroanilino)-benzo[d][1,2,3]triazine]
- IC50 [1]: 17.4 µM
- The inhibitory effect on the growth of chorioallantoic membrane vessels [2]: The vessels are fractured at the central part that is covered by paper.
- Rat Aortic Ring Assay (10 ug/ml), result in words (Rat aortic ring): Cell proliferation and migration were affected. Endothelial cell
- Kinase inhibition rate (VEGFR-2) (VEGFR-2): 0.80

Structure (SMILES): CCCCOc1cc2nnnc(Nc3ccc(F)c(C(F)(F)F)c3)c2cc1OC [Example 23, 6-methoxy-7-n-butoxy-4-(3-trifluoromethyl-4-fluoroanilino)-benzo[d][1,2,3]triazine]
- IC50 [1]: 16.1 µM
- The inhibitory effect on the growth of chorioallantoic membrane vessels [2]: The vessels covered by paper become thinner and fewer.
- Rat Aortic Ring Assay (10 ug/ml), result in words (Rat aortic ring): Cell morphology was similar to D10, and cells were linear.

Structure (SMILES): CCOc1cc2nnnc(Nc3cccc(OC(F)(F)F)c3)c2cc1OC [Example 36, 6-methoxy-7-ethoxy-4-(3-trifluoromethoxyanilino)-1,2,3-benzotriazine]
- IC50 [1]: 23.3 µM
- The inhibitory effect on the growth of chorioallantoic membrane vessels [2]: One sample exhibits no vascular growth at the zone covered by paper.
- Rat Aortic Ring Assay (10 ug/ml), result in words (Rat aortic ring): Almost complete inhibition (10 μg/mL)

Structure (SMILES): CCOc1cc2nnnc(Nc3ccc(F)c(C(F)(F)F)c3)c2cc1OC [Example 40, 6-methoxy-7-ethoxy-4-(3-trifluoromethyl-4-fluoroanilino)-benzo[d][1,2,3]triazine]
- IC50 [1]: 31.7 µM
- The inhibitory effect on the growth of chorioallantoic membrane vessels [2]: One of the two samples exhibits inhibition
- Rat Aortic Ring Assay (10 ug/ml), result in words (Rat aortic ring): No significant inhibition

Structure (SMILES): CCCCCOc1cc2nnnc(Nc3cc(F)cc(F)c3)c2cc1OC [Example 47, 6-methoxy-7-pentyloxy-4-(3,5-difluoroanilino)-benzo[d][1,2,3]triazine]
- IC50 [1]: 27.9 µM
- The inhibitory effect on the growth of chorioallantoic membrane vessels [2]: The vessels in the paper covered zone become fewer,
- Rat Aortic Ring Assay (10 ug/ml), result in words (Rat aortic ring): No significant inhibition

Structure (SMILES): CCCCCOc1cc2nnnc(Nc3cccc(OC(F)(F)F)c3)c2cc1OC [Example 53, 6-methoxy-7-pentyloxy-4-(3-trifluoromethoxyanilino)-benzo[d][1,2,3]triazine]
- IC50 [1]: 38 µM
- The inhibitory effect on the growth of chorioallantoic membrane vessels [2]: Both of the samples exhibit inhibition ring at the central part of the paper,
- Rat Aortic Ring Assay (10 ug/ml), result in words (Rat aortic ring): No significant inhibition
- Kinase inhibition rate (VEGFR-2) (VEGFR-2): 11.22

Structure (SMILES): COc1cc2c(Nc3cccc(C(F)(F)F)c3)nnnc2cc1OCCCCl [Example 67, 6-methoxy-7-chloropropoxy-4-(3-trifluoromethylanilino)-benzo[d][1,2,3]triazine]
- IC50 [1]: 21.4 µM
- The inhibitory effect on the growth of chorioallantoic membrane vessels [2]: The embryo is dead.
- inhibition at 10 µg/mL (Rat aortic ring): > 50%
- Kinase inhibition rate (VEGFR-2) (VEGFR-2): 0.26

Structure (SMILES): COc1cc2c(Nc3ccc(F)c(Cl)c3)nnnc2cc1OCCCCl [Example 72, 6-methoxy-7-chloropropoxy-4-(3-chloro-4-fluoroanilino)-benzo[d][1,2,3]triazine]
- IC50 [1]: 7.98 µM
- IC50 [3]: 5.19 µM
- IC50 [4]: 3.73 µM
- IC50 [5]: 3.79 µM
- IC50 [6]: 4.96 µM
- IC50 [7]: 6.91 µM
- IC50 [8]: 5.04 µM
- Kinase inhibition rate (VEGFR-2) (VEGFR-2): −14.70

Structure (SMILES): COc1cc2c(Nc3ccc(F)cc3)nnnc2cc1OCCCCl [Example 76, 6-methoxy-7-chloropropoxy-4-(4-fluoroanilino)-benzo[d][1,2,3]triazine]
- IC50 [1]: 23.1 µM
- The inhibitory effect on the growth of chorioallantoic membrane vessels [2]: The vessels become rare at the zone covered by paper.
- Rat Aortic Ring Assay (10 ug/ml), result in words (Rat aortic ring): No significant inhibition
- Kinase inhibition rate (VEGFR-2) (VEGFR-2): 9.35

Structure (SMILES): Fc1ccc(Nc2nnnc3ccc(Cl)nc23)cc1C(F)(F)F [Example 90, 6-chloro-4-(3-trifluoromethyl-4-fluoroanilino)pyrido[3,2-d][1,2,3]-triazine]
- IC50 [1]: 10.8 µM
- The inhibitory effect on the growth of chorioallantoic membrane vessels [2]: One exhibits no inhibition, and embryo of the other sample is dead.

Structure (SMILES): Clc1ccc2nnnc(Nc3cccc(Br)c3)c2n1 [Example 92, 6-chloro-4-(3-bromoanilino)-pyrido[3,2-d][1,2,3]triazine]
- IC50 [1]: 7.24 µM
- The inhibitory effect on the growth of chorioallantoic membrane vessels [2]: One of the two samples exhibits significant vascular inhibition.
- inhibition at 10 µg/mL (Rat aortic ring): > 50%

Structure (SMILES): Fc1ccc(Nc2nnnc3ccc(Cl)nc23)cc1 [Example 93, 6-chloro-4-(4-fluoroanilino)pyrido[3,2-d][1,2,3]triazine]
- IC50 [1]: 11.7 µM
- The inhibitory effect on the growth of chorioallantoic membrane vessels [2]: One of the two samples exhibits death of the embryo, and the other exhibits
- Kinase inhibition rate (VEGFR-2) (VEGFR-2): 5.27

Structure (SMILES): Clc1ccc(Nc2nnc(Cc3ccncc3)c3ccccc23)cc1 [PTK787, Vatalanib succinate, reference compound]
- IC50 [1]: 38.1 µM
- IC50 [3]: 21.4 µM
- IC50 [4]: > 40 µM
- IC50 [5]: 35 µM
- IC50 [6]: 41.3 µM
- IC50 [7]: 63.7 µM
- IC50 [8]: 36.3 µM
- IC50 [9]: 12.3 µM
- IC50 [10]: 24.2 µM
- The inhibitory effect on the growth of chorioallantoic membrane vessels [2]: There is no vascular growth.
